Measured values: ChEMBL document CHEMBL4270637, “Small molecule-induced degradation of the full length and V7 truncated variant forms of human androgen receptor” (Eur J Med Chem, 2018)
pIC50: −log10 of the molar value. Active and inactive are the calls of the source. No cut-off for these calls is given here.

What was measured:
[1] = target: T1, Androgen receptor (Homo sapiens) (UniProt P10275); assay: Induction of full length AR degradation in human LNCAP cells at 2 to 20 uM after 5 hrs by Western blot analysis; type: cell-based
T1 sequence (whole entry): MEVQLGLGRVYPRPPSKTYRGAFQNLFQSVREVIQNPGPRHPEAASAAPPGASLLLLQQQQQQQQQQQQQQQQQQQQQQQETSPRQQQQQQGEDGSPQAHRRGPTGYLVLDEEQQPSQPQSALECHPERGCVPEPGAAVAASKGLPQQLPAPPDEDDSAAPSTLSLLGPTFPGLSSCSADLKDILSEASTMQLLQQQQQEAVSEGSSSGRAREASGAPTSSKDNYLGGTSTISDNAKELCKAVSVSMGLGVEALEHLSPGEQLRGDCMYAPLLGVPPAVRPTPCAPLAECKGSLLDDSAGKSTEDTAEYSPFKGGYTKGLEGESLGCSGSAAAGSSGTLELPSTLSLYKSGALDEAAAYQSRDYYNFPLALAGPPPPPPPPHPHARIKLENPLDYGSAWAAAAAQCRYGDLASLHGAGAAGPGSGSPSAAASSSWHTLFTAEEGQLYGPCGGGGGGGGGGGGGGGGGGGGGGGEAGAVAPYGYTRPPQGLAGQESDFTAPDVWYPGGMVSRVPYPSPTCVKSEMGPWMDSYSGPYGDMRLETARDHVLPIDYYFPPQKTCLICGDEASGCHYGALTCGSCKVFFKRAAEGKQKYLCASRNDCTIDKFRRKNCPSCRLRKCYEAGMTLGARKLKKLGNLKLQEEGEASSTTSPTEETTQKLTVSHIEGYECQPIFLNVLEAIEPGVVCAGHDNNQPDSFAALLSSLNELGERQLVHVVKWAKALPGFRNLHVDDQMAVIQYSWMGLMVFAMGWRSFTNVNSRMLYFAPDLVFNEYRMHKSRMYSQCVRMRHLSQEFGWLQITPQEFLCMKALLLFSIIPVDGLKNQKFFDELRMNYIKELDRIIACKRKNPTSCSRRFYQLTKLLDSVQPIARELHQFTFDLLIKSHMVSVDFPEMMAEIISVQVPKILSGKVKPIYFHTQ

Androgen receptor [2] = target: T2, Androgen receptor (Homo sapiens, UniProt P10275); assay: Inhibition of R1881-induced full length AR transcriptional activity in human LNCAP cells harboring AR2PB-eGFP construct after 72 hrs by fluorescence assay; type: cell-based
T2 sequence (P10275 whole entry): T1 sequence (whole entry)

Androgen receptor [3] = target: T2, Androgen receptor; assay: Inhibition of full length AR transcriptional activity in human LNCAP cells harboring AR2PB-eGFP construct assessed as reduction in R1881-induced secreted PSA level after 72 hrs by fluorescence assay; type: cell-based
CWR22R [4] = assay: Cytotoxicity against human 22Rv1 cells assessed as growth inhibition at lower concentration after 72 hrs by presto-blue dye based assay; type: functional, cell-based
LNCaP [5] = assay: Induction of apoptosis in human LNCAP cells assessed as PARP cleavage at 2 to 20 uM after 5 hrs by Western blot analysis; type: functional, cell-based
[6] = target: T1, Androgen receptor (Homo sapiens); conditions: at 10 µM
Description: Antagonist activity at full length YFP-tagged AR (unknown origin) expressed in HEK293T cells assessed as inhibition of R1881-induced nuclear translocation at 10 uM after 4 hrs by DAPI staining based confocal microscopic method

Androgen receptor [7] = target: Androgen receptor (Homo sapiens, UniProt P10275); assay: Inhibition of R1881-induced transcriptional activity of human AR V7 truncated mutant expressed in human PC3 cells harboring pGL3-ARR3tk-NLuc after 24 hrs by luciferase reporter gene assay; type: cell-based
LNCaP [8] = assay: Cytotoxicity against human LNCAP cells harboring AR2PB-eGFP construct after 72 hrs by MTS assay; type: cell-based
PC-3 [9] = assay: Cytotoxicity against human PC3 cells harboring pGL3-ARR3tk-NLu/human AR V7 truncated mutant after 72 hrs by MTS assay; type: cell-based; conditions: pc-3, 72 h
[10] = target: T3, Progesterone receptor (Homo sapiens) (UniProt P06401); assay: Inhibition of progesterone-induced transcriptional activity of human PR expressed in human PC3 cells harboring pGL3-ARR3tk-NLuc at 2 uM after 24 hrs by luciferase reporter gene assay; type: cell-based
T3 sequence (whole entry): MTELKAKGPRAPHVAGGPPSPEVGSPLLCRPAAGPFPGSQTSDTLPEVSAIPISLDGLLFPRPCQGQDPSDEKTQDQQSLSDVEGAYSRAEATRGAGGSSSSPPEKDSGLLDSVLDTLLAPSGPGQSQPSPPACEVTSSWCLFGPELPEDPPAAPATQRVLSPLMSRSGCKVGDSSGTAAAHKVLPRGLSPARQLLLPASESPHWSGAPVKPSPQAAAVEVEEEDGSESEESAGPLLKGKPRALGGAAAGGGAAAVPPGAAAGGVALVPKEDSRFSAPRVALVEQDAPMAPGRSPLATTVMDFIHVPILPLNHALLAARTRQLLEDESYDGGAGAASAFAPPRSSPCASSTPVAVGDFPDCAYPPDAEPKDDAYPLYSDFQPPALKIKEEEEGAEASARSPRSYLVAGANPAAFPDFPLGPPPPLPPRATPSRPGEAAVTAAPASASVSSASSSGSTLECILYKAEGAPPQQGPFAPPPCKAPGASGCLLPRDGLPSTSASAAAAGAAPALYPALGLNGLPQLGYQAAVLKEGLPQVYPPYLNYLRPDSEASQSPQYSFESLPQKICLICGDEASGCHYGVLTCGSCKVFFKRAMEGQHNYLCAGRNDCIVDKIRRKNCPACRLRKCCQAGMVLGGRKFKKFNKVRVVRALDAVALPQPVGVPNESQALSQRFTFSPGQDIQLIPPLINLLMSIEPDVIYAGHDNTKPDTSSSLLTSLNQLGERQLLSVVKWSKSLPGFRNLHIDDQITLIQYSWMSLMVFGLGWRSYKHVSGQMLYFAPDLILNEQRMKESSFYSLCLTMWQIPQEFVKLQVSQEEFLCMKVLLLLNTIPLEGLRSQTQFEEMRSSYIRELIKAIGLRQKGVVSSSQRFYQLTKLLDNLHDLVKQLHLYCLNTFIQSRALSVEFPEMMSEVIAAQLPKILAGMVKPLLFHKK

[11] = target: T4, Glucocorticoid receptor (Homo sapiens) (UniProt P04150); assay: Inhibition of dexamethasone-induced transcriptional activity of human GR expressed in human PC3 cells harboring pGL3-ARR3tk-NLuc at 2 uM after 24 hrs by luciferase reporter gene assay; type: cell-based
T4 sequence (whole entry): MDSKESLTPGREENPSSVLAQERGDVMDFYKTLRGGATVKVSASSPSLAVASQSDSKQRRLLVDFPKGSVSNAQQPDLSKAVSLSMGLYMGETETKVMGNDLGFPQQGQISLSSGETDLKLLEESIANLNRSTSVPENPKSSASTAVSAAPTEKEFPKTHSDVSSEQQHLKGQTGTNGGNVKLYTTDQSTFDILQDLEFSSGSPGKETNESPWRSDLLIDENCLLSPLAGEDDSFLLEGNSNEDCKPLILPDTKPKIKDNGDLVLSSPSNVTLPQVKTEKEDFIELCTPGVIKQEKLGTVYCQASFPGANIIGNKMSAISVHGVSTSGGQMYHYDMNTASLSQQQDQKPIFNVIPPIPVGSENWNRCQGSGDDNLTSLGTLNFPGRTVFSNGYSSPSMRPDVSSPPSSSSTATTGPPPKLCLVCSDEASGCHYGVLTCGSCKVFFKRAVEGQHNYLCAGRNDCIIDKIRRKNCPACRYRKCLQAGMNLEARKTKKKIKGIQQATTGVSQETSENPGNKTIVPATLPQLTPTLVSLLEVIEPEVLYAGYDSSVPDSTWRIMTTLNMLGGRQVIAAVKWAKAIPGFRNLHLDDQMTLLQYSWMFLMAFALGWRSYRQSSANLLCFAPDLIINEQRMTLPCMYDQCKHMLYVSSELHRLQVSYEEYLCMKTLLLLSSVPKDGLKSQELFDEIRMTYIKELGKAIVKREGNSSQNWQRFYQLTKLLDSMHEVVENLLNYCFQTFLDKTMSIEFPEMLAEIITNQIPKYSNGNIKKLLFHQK

[12] = target: Estrogen receptor (Homo sapiens) (UniProt Q92731+P03372); assay: Inhibition of estradiol-induced transcriptional activity of human ER expressed in human PC3 cells harboring pGL3-ERE-NLuc at 2 uM after 24 hrs by luciferase reporter gene assay; type: cell-based
[13] = target: T1, Androgen receptor (Homo sapiens); assay: Induction of full length AR degradation in human LNCAP cells assessed as reduction in AR mRNA level at 2 to 20 uM after […] by RT-PCR method; type: cell-based
[14] = target: T1, Androgen receptor (Homo sapiens); assay: Inhibition of R1881-induced transcriptional activity of human AR expressed in human PC3 cells harboring pGL3-ARR3tk-NLuc at 2 uM after 24 hrs by luciferase reporter gene assay; type: cell-based
CWR22R [15] = assay: Cytotoxicity against human 22Rv1 cells assessed as growth inhibition at 5 uM after 72 hrs by presto-blue dye based assay; type: functional, cell-based
CWR22R [16] = assay: Cytotoxicity against human 22Rv1 cells assessed as growth inhibition at 0.5 uM after 72 hrs by presto-blue dye based assay; type: functional, cell-based
PC-3 [17] = assay: Cytotoxicity against human PC3 cells assessed as growth inhibition after 72 hrs by presto-blue dye based assay; type: cell-based; conditions: pc-3, 72 h
Tubulin = assay: Inhibition of tubulin polymerization (unknown origin); type: protein-complex assay, Homo sapiens
Androgen receptor [18] = target: T5, Androgen receptor (Rattus norvegicus, UniProt P15207); assay: Displacement of Fluormone-DHT from rat GST-tagged rat AR LBD expressed in insect cells after 4 hrs by fluorescence polarization assay
T5 sequence (P15207 whole entry): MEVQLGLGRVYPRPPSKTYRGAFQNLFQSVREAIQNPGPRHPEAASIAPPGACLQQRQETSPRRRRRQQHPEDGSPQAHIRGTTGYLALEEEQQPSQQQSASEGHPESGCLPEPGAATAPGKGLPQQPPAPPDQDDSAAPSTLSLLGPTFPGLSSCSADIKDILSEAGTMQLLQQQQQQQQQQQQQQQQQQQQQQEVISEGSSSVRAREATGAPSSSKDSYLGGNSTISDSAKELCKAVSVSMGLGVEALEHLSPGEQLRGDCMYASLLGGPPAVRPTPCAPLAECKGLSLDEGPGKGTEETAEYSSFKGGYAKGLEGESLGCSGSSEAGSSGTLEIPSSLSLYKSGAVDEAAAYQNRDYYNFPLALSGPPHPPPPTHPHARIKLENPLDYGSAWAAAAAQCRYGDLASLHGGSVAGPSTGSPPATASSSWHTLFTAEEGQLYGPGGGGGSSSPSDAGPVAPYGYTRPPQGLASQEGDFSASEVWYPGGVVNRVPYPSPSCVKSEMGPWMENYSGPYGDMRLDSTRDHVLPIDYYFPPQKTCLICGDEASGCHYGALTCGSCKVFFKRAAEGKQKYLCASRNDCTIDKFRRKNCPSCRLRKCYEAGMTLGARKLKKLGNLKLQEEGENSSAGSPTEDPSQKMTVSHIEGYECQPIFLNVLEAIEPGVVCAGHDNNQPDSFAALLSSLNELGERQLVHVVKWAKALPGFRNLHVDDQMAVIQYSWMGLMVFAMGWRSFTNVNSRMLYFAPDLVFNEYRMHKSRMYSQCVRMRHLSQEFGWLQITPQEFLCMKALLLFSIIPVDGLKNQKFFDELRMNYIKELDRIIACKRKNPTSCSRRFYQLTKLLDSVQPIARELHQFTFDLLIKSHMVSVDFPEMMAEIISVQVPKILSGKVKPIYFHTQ

Row | SMILES | Activity [1] | pIC50 (Androgen receptor [2]) | pIC50 (Androgen receptor [3]) | growth inhibition (GI) (CWR22R [4]) | Activity (LNCaP [5]) | inhibition [6] | pIC50 (Androgen receptor [7]) | Activity (LNCaP [8]) | Activity (PC-3 [9]) | inhibition [10] | inhibition [11] | inhibition [12] | Activity [13] | inhibition [14] | growth inhibition (GI) (CWR22R [15]) | growth inhibition (GI) (CWR22R [16]) | growth inhibition (GI) (PC-3 [17]) | pIC50 (Tubulin) | pIC50 (Androgen receptor [18])
1 | COc1ccc(C=C2c3cccc(Cl)c3C(=O)c3c(Cl)cccc32)c(OC)c1O | inactive | 5.95 | 6.77 | Active | inactive | inactive | 5.00 | – | – | – | – | – | – | – | – | – | – | – | –
2 | COc1cc(C=C2c3cccc(Cl)c3C(=O)c3c(Cl)cccc32)cc(OC)c1O | – | < 5.00 | – | – | – | – | < 5.00 | – | – | – | – | – | – | – | – | – | – | – | –
3 | O=C1c2c(Cl)cccc2C(=Cc2ccccc2O)c2cccc(Cl)c21 | – | – | – | – | – | – | – | Toxic | Toxic | – | – | – | – | – | – | – | – | – | –
4 | COc1ccc(C=C2c3ccccc3C(=O)c3ccccc32)c(O)c1 | Active | 6.63 | 7.00 | Active | inactive | inactive | > 5.00 | – | – | inactive | inactive | inactive | inactive | Active | – | – | – | – | –
5 | COc1cccc(C=C2c3cccc(Cl)c3C(=O)c3c(Cl)cccc32)c1O | Active | 5.83 | 6.14 | – | inactive | inactive | 5.00 | – | – | – | – | – | – | – | Active | – | – | – | –
6 | COc1ccc(C=C2c3cccc(Cl)c3C(=O)c3c(Cl)cccc32)cc1O | inactive | 5.22 to 5.72 | 6.47 | Active | inactive | inactive | 5.00 | – | – | – | – | – | – | – | – | – | – | – | –
7 | O=C1c2ccccc2C(=Cc2cccc(O)c2)c2ccccc21 | Active | 6.50 | 6.46 | – | inactive | inactive | > 5.00 | – | – | inactive | inactive | inactive | inactive | Active | – | Active | Toxic | 5.00 | 5.60 to 6.20
